Key:
C3H10T1/2 cells = experiment: Release of arachidonic acid from C3H10T1/2 cells; type: cell-based, mouse; conditions: % of the maximal PMA-induced response relative to the DMSO control, 2 hour treatment
Protocol: FIGS. 15A and 15B show the release of arachidonic acid from treated C3H10T1/2 cells. The cells were labeled with [^3H]arachidonic acid for 18 hrs, treated with DMSO as control, different concentrations of PMA (0.1-100 nM), bryostatin 1 (1-1000 nM), the bryologues (1-1000 nM) (A) or 100 nM PMA in combination with 1000 nM bryostatin 1, or the bryologues MERLE 21, 22, 23. The radioactive arachidonic acid released into the medium was quantitated after 2 hour treatment. The response of 100 nM PMA was taken as 100%. Data represent the means+SEM of four (FIG. 15A) or three (FIG. 15B) independent experiments.
C3H10T1/2 cells (ATCC, Manassas, Va.) were plated in 24 well plates and treated with different drugs or with DMSO as control. The release of arachidonic acid after 2 hour treatment was measured as described previously (Dell′Aquila M L, Herald C L, Kamano Y, Pettit G R, Blumberg P M. Differential effects of byrostatins and phorbol esters on arachidonic acid metabolite release and epidermal growth factor binding in C3H10T1/2 cells. Cancer Res 1988; 48: 3702-3708).

LNCaP cells = experiment: Proliferation of LNCaP cells (Incucyte confluency); type: cell-based, human; conditions: 300 nM PMA combined with 1000 nM compound, 80 hrs
Protocol: FIGS. 12A-D show the effect of different compounds on the proliferation and apoptosis of LNCaP cells. […] Time-elapsed images were taken with an Incucyte imaging system every hour for 4 days. The proliferation of LNCaP cells is presented as increase in confluency (read by the instrument) at 80 hrs. Data represent the means+SEM of three independent experiments. […] Apoptosis was measured 2 days after treatment by flow cytometry using 7-AAD and Yo-Pro-1 as described in Materials and Methods. Data represent the means+SEM of three independent experiments.
FIGS. 13A and 13B show the proliferation and morphology of LNCaP cells detected by Incucyte. LNCaP cells were treated with DMSO as control, 300 nM PMA, 1000 nM bryostatin 1 or the bryologue MERLE 21, or with 300 nM PMA in combination with 1000 nM bryostatin 1 or the bryologue MERLE 21. Time-elapsed images were taken by the Incucyte imaging system every hour. […] The arrow indicates the time of treatment. Data are representative of three independent experiments.
The extent of confluency of LNCaP cells (from ATCC, Manassas, Va.) and the morphological changes after treatment were followed in real time using Incucyte (Essen Instruments, Ann Arbor, Mich.). Images of LNCaP cells plated into 24 well plates were taken every 1 hour by the instrument before and after treatment for a total of 4 days. The confluency of the cells was calculated by the instrument's program. The proliferation of LNCaP cells was expressed as the difference in cell confluency before and after treatment.

U937 cells [1] = experiment: Inhibition of U937 cell proliferation; type: cell-based, human
Protocol: (§1) U937 cells (Sundstrom, C.; Nilsson, K.: Establishment and characterization of a human histiocytic lymphoma cell line (U-937). Int. J. Cancer 1976, 17: 565-577.), purchased from ATCC (Manassas, Va.) and cultured in RPMI-1640 medium supplemented with 10% FBS (ATCC, Manassas, Va.), were plated in 35 mm dishes at a density of 2×10^5 living cells/ml and treated with different concentrations of the drugs or DMSO. After 72 hours, the number of cells in the supernatant (non-attached cells) and the number of attached cells (after trypsinization) were counted using a Beckman particle counter (Beckman Coulter Inc., Fullerton, Calif.). The number of attached cells is expressed as percent of total cells (FIGS. 8-10).
(§2) U937 cells were treated with PMA (0.1-100 nM), bryostatin 1 (1-1000 nM), the indicated compound (1-1000 nM), 10 nM PMA with different concentrations of bryostatin 1 (1-1000 nM) or 10 nM PMA with different concentrations of indicated compound (1-1000 nM). The number of attached and non-attached cells was counted and the number of total cells was expressed as % of control. The bars and error bars represent the average and the standard error of the mean of five independent experiments (FIGS. 8-10).
(§3) U937 cells (Sundstrom and Nilsson, 1976), purchased from ATCC (Manassas, Va.) and cultured in RPMI-1640 medium supplemented with 10% FBS (ATCC, Manassas, Va.), were plated in 35 mm dishes at a density of 1×10^5 living cells/ml and treated with different concentrations of the drugs or DMSO. After 72 hours, the number of cells in the supernatant (non-attached cells) and the number of attached cells (after trypsinization) were counted using a particle counter. The number of attached cells is expressed as percent of total cells.
U937 cells were treated with PMA (0.01-100 nM), bryostatin1 (0.1-1000 nM), analogue 12 (0.1-1000 nM), 10 nM PMA with different concentrations of bryostatin 1 (0.1-1000 nM) or 10 nM PMA with different concentrations of analogue 12 (0.1-1000 nM). The numbers of attached and non-attached cells were counted and the number of total cells was expressed as % of control. The bars and error bars represent the average and the standard error of the mean of at least three independent experiments.
as §3, with “U-937” for “U937”
as §2, with “U-937” for “U937”, “at least three” for “five”, “experiments.” for “experiments (FIGS. 8-10).”

U937 cells [2] = experiment: Attachment of U937 cells; type: cell-based, human
Protocol: as §1
(§4) U937 cells were treated with PMA (0.1-100 nM), bryostatin 1 (1-1000 nM), the indicated compound (1-1000 nM), 10 nM PMA with different concentrations of bryostatin 1 (1-1000 nM) or 10 nM PMA with different concentrations of indicated compound (1-1000 nM) for 72 hours. The number of attached cells and total cells were counted and the attached cells were graphed as percent of total cells. The bars and error bars represent the average and the standard error of the mean of five independent experiment (FIGS. 8-10).
as §3
U937 cells were treated with PMA (0.01-100 nM), bryostatin1 (0.1-1000 nM), analogue 12 (MERLE 28) (0.1-1000 nM), 10 nM PMA with different concentrations of bryostatin 1 (0.1-1000 nM) or 10 nM PMA with different concentrations of analogue 12 (0.1-1000 nM). The number of attached cells and total cells were counted and the attached cells were graphed as percent of total cells. The bars and error bars represent the average and the standard error of the mean of at least three independent experiments.
as §3, with “U-937” for “U937”
as §4, with “U-937” for “U937”, “at least three” for “five”, “experiments.” for “experiment (FIGS. 8-10).”

[3] = 10 nM PMA with different concentrations of compound

SMILES | arachidonic acid release, average level of response (C3H10T1/2 cells) [%] | block of the PMA inhibition of LNCaP cell growth (LNCaP cells) | block of PMA inhibition of U937 cell proliferation (U937 cells [1]; [3]) | inhibition of U937 cell proliferation (U937 cells [1]; compound alone) | block of PMA-induced attachment of U937 cells (U937 cells [2]; [3]) | attachment of U937 cells (U937 cells [2]; compound alone, 72 hours)
C=C1C[C@@H]2C[C@@H]3CC(=C)C[C@H](/C=C/C(C)(C)[C@]4(O)O[C@@H](C/C(=C\C(=O)OC)[C@@H]4OC(=O)/C=C/C=C/CCC)C[C@H]([C@@H](C)O)OC(=O)C[C@H](O)C[C@H](C1)O2)O3 [MERLE 23] | 64 | did not appear to quite reach the level observed for bryostatin 1 |  |  |  | 
C=C1C[C@@H]2C[C@@H]3CC(=C)C[C@H](/C=C/C(C)(C)[C@]4(O)O[C@@H](C/C(=C\C(=O)OC)[C@@H]4OC(=O)CCCCCCC)C[C@H]([C@@H](C)O)OC(=O)C[C@H](O)C[C@H](C1)O2)O3 [MERLE 22] | 69 | did not appear to quite reach the level observed for bryostatin 1 |  |  |  | 
C=C1C[C@@H]2C[C@@H]3CC(=C)C[C@H](/C=C/C(C)(C)[C@]4(O)O[C@@H](C/C(=C\C(=O)OC)[C@@H]4OC(=O)c4ccccc4)C[C@H]([C@@H](C)O)OC(=O)C[C@H](O)C[C@H](C1)O2)O3 [MERLE 21] | 73 | did not appear to quite reach the level observed for bryostatin 1 |  |  |  | 
C=C1C[C@H]2CC3(O)O[C@H](C[C@@H](O)CC(=O)O[C@@H]([C@@H](C)O)C[C@@H]4C/C(=C\C(=O)OC)[C@H](OC(=O)/C=C/C=C/CCC)[C@@](O)(O4)C(C)(C)/C=C/[C@@H](C1)O2)C[C@H](OC(C)=O)C3(C)C [MERLE 28] |  |  | Both of these aspects of bryostatin 1 induced biological response are captured | very similar to those for bryostatin 1 | functional antagonist of PMA and blocks the effect of the phorbol ester | approaches that of bryostatin 1 itself

— US9096550B2, “Bryostatin analogues and methods of making and using thereof” (UNIVERSITY OF UTAH RESEARCH FOUNDATION, priority 2008, dated 2015)
